The text below walks through data of article PMC9880260, “Identification of compounds with activity against Trypanosoma cruzi within a collection of synthetic nucleoside analogs” (Frontiers in Cellular and Infection Microbiology, 2023).

One data set concerns HepG2 cells. As to the kind of experiment: HepG2 cell toxicity assay (Alamar Blue, 48 h). The class given is cell-based, human. As to the method:
(§1) Compounds were added to the plates and diluted following a dose-response pattern in assay medium. Vero cells were prepared in assay medium and added to each well as described ([Martinez-Peinado et al., 2020]). Each test plate contained its own negative (untreated cells) and positive (medium alone) control wells ([Martinez-Peinado et al., 2020]). BNZ and digitoxin (DTX) were included as non-toxicity and toxicity drug controls, respectively. Parallel assays with HepG2 cells were carried out to evaluate the toxicity of compounds in a human cell line as described ([Martinez-Peinado et al., 2020]). […] Vitality was measured with Alamar Blue (Thermo Fischer Scientific, Waltham, USA) to detect metabolically active (live) cells by fluorimetry. For this, a PBS dilution with 10% Alamar Blue was added to each well and the plates were incubated at 37°C for 6 h. Readout was performed on a TECAN Infinite M Nano+ reader (Tecan Trading AG, Männedorf, Switzerland) using i-control™ 2.0 software and setting excitation at 530 nm and emission at 590 nm.
(In general: Resazurin is reduced to fluorescent resorufin, in cell work by metabolically active cells.)

The next data set concerns Vero cells. The class given is cell-based. The following applies: green monkey, 96 h. As to the method:
as §1

Another data set has as its system T. cruzi amastigotes. The experiment in a line: Amastigotes growth inhibition assay (infected Vero cells, 72 h, CPRG). The following applies: for IC50: Trypanosoma cruzi, Vero, 72 h, read-out: [IC50] Anti-amastigote assay; for activity against amastigotes: active = IC50 ≤ 10× that of BNZ.
In data set [1] the test system is T. cruzi Tulahuen parasites. The following applies: Vero TC50 / anti-T. cruzi IC50.
Experimental: Trypomastigotes were isolated for the maintenance of the cycle and for the performance of the antiparasitic assays, respectively. Briefly, medium containing free swimming trypomastigotes was harvested in falcon tubes and centrifuged at 2,500 rpm for 10 minutes to remove cell debris. […] In the second case, another centrifugation was made to get rid of any PR remnants that may interfere in the assay readout.
Compounds were added to a flat 96-well cell culture plate (SPL Life Sciences, Pocheon-si, Korea) and diluted in assay medium following a 1:2 dose-response pattern. Vero cells were detached, washed and counted using a Neubauer chamber. On the other side, T. cruzi trypomastigotes were collected and counted. Then, 50,000 trypomastigotes and 50,000 Vero cells were simultaneously added to each well to reach a final volume of 200 μl per well (multiplicity of infection or MOI = 1). […] Note that trypomastigotes are unable to multiply and therefore they mark the enzymatic time zero. In addition to those controls, BNZ-treated wells were also included as a positive control of drug inhibition. Plates were incubated at 37°C for 96 h. After that, chlorophenol red-β-D-galactopyranoside (CPRG) substrate was added to detect the enzymatic activity of β-galactosidase expressed by the parasites. […] Absorbance was measured at 590 nm in an Epoch Gene5 Microplate Spectrophotometer (BioTek, Winooski, USA).
(§2) Half maximum inhibitory (IC50) and half maximum toxicity concentration (TC50) values were determined with GraphPad Prism 7 software (version 7.00, San Diego, USA) using a nonlinear regression analysis model defined by equation 2:
(§3) Values were expressed as means with standard deviations (SD) of at least three independent experiments.
Data set [2] can be described thus: Microscopy-based observation of compound dissolution / crystals in assay medium. The class given is physicochemical. As to conditions: for solubility: compounds at 750 μM, read-out: solubility issues / crystals formed during the assays. As to the method: Among the eight compounds selected, five carried the benzene ring group at position C8 illustrating the relevance of this substituent. Family by family, L4-0c was the only selected from L4-0.
Figure S3. Crystals of the compounds [750 μM] formed during the assays. The eight compounds selected through the discovery cascade are shown in bold. Besides, those indicated with an asterisk too had solubility issues. BNZ is shown at 400 μM.

Experimental for T. cruzi amastigotes: Upon washing the monolayers with PBS, purified trypomastigotes were added at a concentration of 1×10^7 trypomastigotes per flask (MOI = 1) and infected monolayers were kept in assay medium. After 18 h, infected Vero cells were PBS-washed and trypsin-detached, diluted at a concentration of 5×10^5 cells per ml in assay medium and 100 μl of that solution (50000 cells) added to 96-well test plates already containing the compounds.
as §2, §3

In general, IC50 refers to the concentration at which inhibition is half-maximal. Regarding `Clc1ccc(CNc2ncnc3c2nc(-c2ccccc2)n3Cc2ccc(Cl)cc2)cc1` [Compound L4-4c], the “[TC50] HepG2 assay” value in the data set on HepG2 cells (human) amounted to 164.80 ± 38.82 µM. Moreover, the “[TC50] Vero cells assays” value in the data set on Vero cells amounted to 187.50 ± 54.14 µM. In the data set on T. cruzi amastigotes, the IC50 was determined as 4.2 ± 0.21 µM and the activity against amastigotes result is given as “active”.

In the case of `Cc1nc2c(NCc3ccccc3)ncnc2n1Cc1ccccc1` [Compound L4-0b], the “SI Vero cells assays (TC50/IC50)” value in data set [1] was 4.75. For the same compound, the “[TC50] Vero cells assays” value with Vero cells came out at 68.16 ± 12.00 µM.

For `c1ccc(CCNc2ncnc3c2nc(-c2ccccc2)n3CCc2ccccc2)cc1` [Compound L4-1c], the “[TC50] HepG2 assay” value with HepG2 cells (human) is 53.96 ± 12.33 µM. For the same compound, the “[TC50] Vero cells assays” value in the data set with Vero cells is given as > 1,000 μM. For the same compound, in the data set on T. cruzi amastigotes, the IC50 stood at 6.21 ± 0.29 µM and the activity against amastigotes entry is recorded as “active”.

Regarding `Clc1cccc(CNc2ncnc3c2ncn3Cc2cccc(Cl)c2)c1` [Compound L4-8a], the “[TC50] HepG2 assay” value in the data set on HepG2 cells (human) was 35.21 ± 5.52 µM. Moreover, the “[TC50] Vero cells assays” value in the data set with Vero cells stood at 346.30 ± 189.30 µM.

Turning to `O=C(Cn1ccnc1[N+](=O)[O-])NCc1ccccc1` [BNZ, benznidazole, reference compound], the “[TC50] HepG2 assay” value in the data set on HepG2 cells (human) came out at 490.90 ± 267.10 µM. Also, the “SI Vero cells assays (TC50/IC50)” value in data set [1] turned out to be 81.36. In the data set with Vero cells, the “[TC50] Vero cells assays” value was 196.90 ± 30.67 µM. The IC50 in the data set with T. cruzi amastigotes is 1.47 ± 0.08 µM.

Turning to `c1ccc(CNc2ncnc3c2nc(-c2ccccc2)n3Cc2ccccc2)cc1` [Compound L4-0c], in data set [2], the “dissolution in assay medium (microscopy-based observation)” value (“dissolution in assay medium” below) is recorded as “failed to be completely dissolved”. Moreover, in the data set with HepG2 cells (human), the “[TC50] HepG2 assay” value is given as > 10,000 μM. The “[TC50] Vero cells assays” value in the data set on Vero cells is listed as > 1,000 μM. For the same compound, in the data set on T. cruzi amastigotes, the IC50 came to 11.2 ± 0.35 µM and the activity against amastigotes result was “active”.

As to `Cc1nc2c(NCc3ccc(Cl)cc3)ncnc2n1Cc1ccc(Cl)cc1` [Compound L4-4b], in data set [1], the “SI Vero cells assays (TC50/IC50)” value came to 5.17. For the same compound, in the data set with Vero cells, the “[TC50] Vero cells assays” value is 27.01 ± 2.00 µM.

Regarding `C[C@H]1O[C@@H](O[C@H]2[C@@H](O)C[C@H](O[C@H]3[C@@H](O)C[C@H](O[C@H]4CC[C@@]5(C)[C@H](CC[C@@H]6[C@@H]5CC[C@]5(C)[C@@H](C7=CC(=O)OC7)CC[C@]65O)C4)O[C@@H]3C)O[C@@H]2C)C[C@H](O)[C@@H]1O` [DTX, digitoxin, reference compound], the “[TC50] HepG2 assay” value in the data set with HepG2 cells (HepG2 cells, mean ± SD) amounted to 1.29 ± 0.40 µM.

Consider `COc1ccc(CNc2ncnc3c2nc(-c2ccccc2)n3Cc2ccc(OC)cc2)cc1` [Compound L4-2c], for which the “[TC50] HepG2 assay” value with HepG2 cells (human) is listed as > 10,000 μM. In addition, the “[TC50] Vero cells assays” value in the data set with Vero cells is on record as > 1,000 μM. In the data set on T. cruzi amastigotes, the IC50 stood at 6.19 ± 0.21 µM and the activity against amastigotes result is on record as “active”.

`Clc1ccccc1CNc1ncnc2c1nc(-c1ccccc1)n2Cc1ccccc1Cl` [Compound L4-9c]: the “[TC50] HepG2 assay” value in the data set with HepG2 cells (human) is >10,000 μM. Besides, in data set [1], the “SI Vero cells assays (TC50/IC50)” value is listed as > 10,000. Besides, in the data set on Vero cells, the “[TC50] Vero cells assays” value is recorded as > 10,000 μM. In the data set on T. cruzi amastigotes, the IC50 amounted to 28.7 ± 2.34 µM and the activity against amastigotes entry was “inactive”.

As for `Clc1cccc(CNc2ncnc3c2nc(-c2ccccc2)n3Cc2cccc(Cl)c2)c1` [Compound L4-8c, N,9-bis(3-chlorobenzyl)-8-phenyl-9H-purin-6-amine], in data set [2], the “dissolution in assay medium” value is “presence of crystals” and the solubility was < 750 µM. In addition, the “[TC50] HepG2 assay” value in the data set on HepG2 cells (human) is on record as > 1,000 μM. In the data set on Vero cells, the “[TC50] Vero cells assays” value is listed as > 1,000 μM. In the data set on T. cruzi amastigotes, the IC50 was determined as 7.61 ± 0.36 µM and the activity against amastigotes entry is “active”.

For the compound `Brc1ccc(CCNc2ncnc3c2nc(-c2ccccc2)n3CCc2ccc(Br)cc2)cc1` [Compound L4-7c], in the data set with HepG2 cells (human), the “[TC50] HepG2 assay” value was 550.60 ± 130.00 µM. In addition, the “[TC50] Vero cells assays” value in the data set on Vero cells was determined as 909.20 ± 564.00 µM. Also, in the data set with T. cruzi amastigotes, the IC50 was found to be 7.51 ± 0.79 µM and the activity against amastigotes result is given as “active”.

With `c1ccc(CCNc2ncnc3c2ncn3CCc2ccccc2)cc1` [Compound L4-1a], the “SI Vero cells assays (TC50/IC50)” value in data set [1] stood at 2.59. For the same compound, the “[TC50] Vero cells assays” value with Vero cells amounted to 39.26 ± 4.81 µM.

Take `Cc1nc2c(NCCc3ccccc3)ncnc2n1CCc1ccccc1` [Compound L4-1b]: in data set [1], the “SI Vero cells assays (TC50/IC50)” value is recorded as 3.52. Further, in the data set on Vero cells, the “[TC50] Vero cells assays” value was 55.91 ± 5.64 µM.

Take `Cc1nc2c(NCc3cccc(Cl)c3)ncnc2n1Cc1cccc(Cl)c1` [Compound L4-8b]: the “[TC50] HepG2 assay” value in the data set on HepG2 cells (human) came out at 17.77 ± 0.71 µM. Also, the “SI Vero cells assays (TC50/IC50)” value in data set [1] is reported as 11.65. In addition, the “[TC50] Vero cells assays” value with Vero cells came to 60.11 ± 8.50 µM.

Turning to `Clc1ccc(CNc2ncnc3c2ncn3Cc2ccc(Cl)cc2)cc1` [Compound L4-4a], the “[TC50] HepG2 assay” value in the data set with HepG2 cells (human) is > 1,000 μM. The “[TC50] Vero cells assays” value with Vero cells is > 1,000 μM. Besides, in the data set on T. cruzi amastigotes, the IC50 came out at 9.36 ± 0.4 µM and the activity against amastigotes result is listed as “active”.

On to `Cc1nc2c(NCc3ccccc3Cl)ncnc2n1Cc1ccccc1Cl` [Compound L4-9b], for which, in data set [2], the “dissolution in assay medium” value was “presence of crystals” and the solubility was < 750 µM. For the same compound, the “[TC50] HepG2 assay” value with HepG2 cells (human) came to 372.20 ± 51.70 µM. The “[TC50] Vero cells assays” value with Vero cells is given as > 1,000 μM. For the same compound, in the data set with T. cruzi amastigotes, the IC50 stood at 8.87 ± 0.42 µM and the activity against amastigotes result was “active”.
